This note sets out measurements from patent US20260217688A1, “INHIBITORS OF JAK2” (Llydaw Therapeutics, Inc., priority 2022, published 2026).

One may read the EC50 as the midpoint of the concentration-response curve. Low readings indicate an effect from little substance, high ones a need for much substance.

A short description of data set [1]: Proliferation inhibition assay (CellTiter-Glo), Ba/F3 JAK2 wt. Particulars: mouse, Ba/F3 (JAK2 wt) cells. In kind it is cell-based.
Another data set deals with T1, JAK2 JH2 (Homo sapiens, UniProt O60674).
T1 construct: Enzyme: JAK2 JH2, His-Avi-Tag, Biotin-Labeled (BPS Bioscience, Cat #79074) 1 nM; His; purchased BPS Bioscience 79074
T1 sequence (O60674 545-809 limits assumed): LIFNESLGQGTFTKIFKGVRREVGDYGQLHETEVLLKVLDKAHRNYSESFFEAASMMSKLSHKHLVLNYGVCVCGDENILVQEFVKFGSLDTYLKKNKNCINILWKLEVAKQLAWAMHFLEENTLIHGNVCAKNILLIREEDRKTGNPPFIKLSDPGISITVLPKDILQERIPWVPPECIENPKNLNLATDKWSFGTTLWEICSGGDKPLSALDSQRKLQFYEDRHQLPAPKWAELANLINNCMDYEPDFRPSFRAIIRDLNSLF
Put plainly: JAK2 JH2 TR-FRET Assay. In kind it is binding. The conditions noted are these: JAK2 JH2 1 nM, Tracer ZE84-0003 10 nM. A digest of the protocol:
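Binding by tracer displacement: biotinylated His-Avi JAK2 JH2 (1 nM) with streptavidin Tb-cryptate (0.2 nM) pre-incubated 15 min with compound (0.25% DMSO), then 10 nM tracer added, 15 min at rt. Buffer was 20 mM HEPES pH 7.2-7.4, 10 mM MgCl2, 0.015% Brij-35, 2 mM DTT, 0.05 mg/ml BSA; TR-FRET read 482/520 nm, EC50 binned A-D.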
In general terms: TR-FRET usually uses a lanthanide donor and a delayed reading to cut background.

A short description of data set [2]: Proliferation inhibition assay (CellTiter-Glo), Ba/F3 JAK2 V617F. The class given is cell-based. Particulars: mouse, Ba/F3 (JAK2 V617F) cells; with 10 ng/ml rmIL-3, 72 h; read-out: Ba/F3 JAK2 V617F + IL3, CC50 3 days.
The test system of a further data set is Ba/F3 (JAK2 V617F) cells. The data set is described as above. The class given is cell-based. The conditions noted are these: Mus musculus, BaF3; without IL3, 72 h; read-out: Ba/F3 JAK2 V617F, CC50 3 days.
Where [3] appears, read: with 10 ng/ml rmIL-3, 72 h, read-out: Ba/F3 JAK2 wt + IL3, CC50 3 days.
The mark [4] stands for this setting: without IL3, 72 h, read-out: Ba/F3 JAK2 wt, CC50 3 days.

`COc1c(Nc2nc(Nc3cnn(C)c3)ncc2C(N)=O)cccc1-c1ncn(C)n1` [Compound 1, 4-((2-Methoxy-3-(1-methyl-1H-1,2,4-triazol-3-yl)phenyl)amino)-2-((1-methyl-1H-pyrazol-4-yl)amino)pyrimidine-5-carboxamide]: the CC50 at 72 h in data set [1] (setting [3]) is more than 10 µM; in data set [1] (setting [4]) it was more than 10 µM; in data set [2], 5 to 10 µM. Moreover, the EC50 on JAK2 JH2 is 0.01 to 0.05 µM. Further, in the data set with Ba/F3 (JAK2 V617F) cells, the CC50 fell in the range of 1 to 5 µM.

On to `COc1c(Nc2nc(Nc3cnn(C45CC6CC(CC(C6)C4)C5)c3)ncc2C(N)=O)cccc1-c1ncn(C)n1` [Compound 30, 2-((1-(1-Adamantyl)-1H-pyrazol-4-yl)amino)-4-((2-methoxy-3-(1-methyl-1H-1,2,4-triazol-3-yl)phenyl)amino)pyrimidine-5-carboxamide], for which the CC50 at 72 h in data set [1] (setting [3]) fell in the range of 1 to 5 µM; in data set [1] (setting [4]), 1 to 5 µM; in data set [2], 0.5 to 1 µM. Further, the EC50 at JAK2 JH2 lay within 0.01 to 0.05 µM. Besides, in the data set on Ba/F3 (JAK2 V617F) cells, the CC50 is not above 0.5 µM.

For the compound `COc1c(Nc2nc(Nc3cnn(CCC(C)C)c3)ncc2C(N)=O)cccc1-c1ncn(C)n1` [Compound 24, 2-[(1-isopentylpyrazol-4-yl)amino]-4-[2-methoxy-3-(1-methyl-1,2,4-triazol-3-yl)anilino]pyrimidine-5-carboxamide], the CC50 at 72 h in data set [1] (setting [3]) was 5 to 10 µM; in data set [1] (setting [4]) it was more than 10 µM; in data set [2], 0.5 to 1 µM. The EC50 on JAK2 JH2 lay within 0.01 to 0.05 µM. The CC50 in the data set with Ba/F3 (JAK2 V617F) cells is not above 0.5 µM.

`COc1c(Nc2nc(Nc3cnn(C4CCOCC4)c3)ncc2C(N)=O)cccc1-c1ncn(C)n1` [Compound 14, 4-[2-methoxy-3-(1-methyl-1,2,4-triazol-3-yl)anilino]-2-[(1-tetrahydropyran-4-ylpyrazol-4-yl)amino]pyrimidine-5-carboxamide]: the CC50 at 72 h in data set [1] (setting [3]) is more than 10 µM; in data set [1] (setting [4]), more than 10 µM; in data set [2], 5 to 10 µM. The compound further had an EC50 on JAK2 JH2 not above 0.01 µM. Further, in the data set on Ba/F3 (JAK2 V617F) cells, the CC50 is not above 0.5 µM.

For the compound `COc1c(Nc2nc(Nc3cnn(CCCN(C)C)c3)ncc2C(N)=O)cccc1-c1ncn(C)n1` [Compound 28, 2-[[1-[3-(dimethylamino)propyl]pyrazol-4-yl]amino]-4-[2-methoxy-3-(1-methyl-1,2,4-triazol-3-yl)anilino]pyrimidine-5-carboxamide], the CC50 at 72 h in data set [1] (setting [3]), in data set [1] (setting [4]) and in data set [2] was more than 10 µM each time. At JAK2 JH2, this compound displayed a half-maximal effective concentration (EC50) of more than 0.1 µM. Further, the CC50 in the data set on Ba/F3 (JAK2 V617F) cells fell in the range of 5 to 10 µM.
